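How tested: cells in 96-well plates exposed to compound for 48 hours at five concentrations. At the GI50, growth is halved. At the TGI there is no net growth.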 Where a SMILES comes first, the peptide text is derived from it.
Legend:
Test in all cases: growth of human tumour cells (NCI), 48 h
SNB-78 CNS = tested on: SNB-78 CNS
SW-620 colon = tested on: SW-620 colon
M14 melanoma = tested on: M14 melanoma
TK-10 renal = tested on: TK-10 renal
SK-MEL-28 melanoma = tested on: SK-MEL-28 melanoma
EKVX NSCLC = tested on: EKVX NSCLC
UACC-62 melanoma = tested on: UACC-62 melanoma
XF 498 CNS = tested on: XF 498 CNS
KM20L2 colon = tested on: KM20L2 colon
T-47D breast = tested on: T-47D breast
PC-3 prostate = tested on: PC-3 prostate

Row | SMILES | TGI (SNB-78 CNS) [µM] | TGI (SW-620 colon) [µM] | TGI (M14 melanoma) [µM] | TGI (TK-10 renal) [µM] | TGI (SK-MEL-28 melanoma) [µM] | TGI (EKVX NSCLC) [µM] | TGI (UACC-62 melanoma) [µM] | GI50 (XF 498 CNS) [µM] | TGI (XF 498 CNS) [µM] | TGI (KM20L2 colon) [µM] | TGI (T-47D breast) [µM] | TGI (PC-3 prostate) [µM]
1 | Cc1cccc(=O)c([O-])c1.Cc1cccc(=O)c([O-])c1.Cc1cccc(=O)c([O-])c1.Cc1cccc(=O)c([O-])c1.[Th+4] | > 100 | > 100 | 42.1 | > 100 | > 100 | > 89.1 | 19.6 | 23.3 | 64.9 | > 100 |  | 
2 | COc1ccccc1NC(=O)CSC(N)=O | > 100 | > 100 | > 100 | > 100 | > 100 | > 100 | 68.3 |  | 83.6 | > 100 |  | 
3 | O=P1(N(CCCl)CCCl)NCCCO1 (centres undefined) | > 216 | > 250 | > 250 | > 250 | > 250 | > 250 | > 250 |  | 180 | > 250 | > 250 | > 250
4 | O=C(NCCNCCO)N/N=C/c1ccccc1 | > 100 | > 100 | > 100 | > 100 | > 100 |  | > 100 |  | > 100 |  |  | 
5 | COC(=O)c1c(C)cccc1C1CN=NC12Cc1cccc(C)c1C2=O (centres undefined) |  | > 100 | 25.5 | > 100 | > 100 | > 100 | 74 |  |  |  | > 100 | 71.1
6 | COc1cccc(OC/C(N=Cc2ccncc2)=N/NC(=O)c2ccncc2)c1 |  | > 100 | > 100 | > 100 | > 100 | > 100 | > 100 |  |  |  | > 100 | > 100
7 | CCOc1ccccc1N=NC1C(=O)N(C(=O)CC(=O)Nc2ccccc2OC)N=C1C (centres undefined) |  | > 100 | > 100 | > 100 | > 100 | 21.8 | > 100 |  |  |  | > 100 | > 100
8 | O=C1/C(=C(/Br)I)c2ccccc2-c2ccccc21 |  | 8.12 | 27.6 | 21.3 | 42.8 | 32.6 | 21.2 |  |  |  | > 80.4 | 23.7
9 | Cc1sc2nc3n(sc4nc5sc(C)c(C)c5c(=O)n43)c(=O)c2c1C |  | > 100 | > 100 | > 100 | > 100 | 98.4 | 87.6 |  |  |  | 12 | > 100
10 | C=C1CC(Cn2cc(Br)c(=O)[nH]c2=O)(c2ccc(Br)cc2)OC1=O (centres undefined) |  | 3.79 | 3.22 | 23 | 16.7 | 39.7 | 9.46 |  |  |  | 5.04 | 12.8
11 | CCOC(=O)COC1=Nc2cc(OC)c(OC)c3nc(Cl)cc(c23)C1=O |  | > 21.6 | 3.08 | 3.45 | 4.01 | 1.83 | 3.17 |  |  |  | 24 | 3.45
12 | CCC(C)C(NC(=O)C1CCCN1)C(=O)NC(C(=O)NCC(=O)NC(CC(N)=O)C(=O)NC(CC(C)C)C(=O)NC(CC(C)C)C(=O)NC(CCCCN)C(N)=O)C(C)C (centres undefined) (H-PIVGNLLK-NH2; configuration not given here) |  | > 75 | > 75 | > 75 | > 75 | > 75 | > 75 |  |  |  | > 75 | > 75
13 | COc1ccc(/C=N/N=C(\N)NO)c(OC)c1OC |  | > 100 | > 100 | > 100 | > 100 | > 100 | > 100 |  |  |  | 90.2 | > 100
